Measurements from ChEMBL document CHEMBL1201862, “PubChem BioAssay data set” (2004).
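How tested: cells in 96-well plates exposed to compound for 48 hours at five concentrations. GI50 is the concentration that inhibits growth by half.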 Active and inactive are the calls of the source. Rule as the data show it: active = GI50 up to about 1.1 µM and inactive = higher.

How the values were obtained:
Experiment in all cases: NCI anticancer screen, dose series, 48 h
[1] = tested on: HL-60
[2] = tested on: 786-0
[3] = tested on: OVCAR-5
[4] = tested on: OVCAR-4
[5] = tested on: SK-MEL-2
[6] = tested on: MCF7
[7] = tested on: SK-MEL-5
[8] = tested on: HCC 2998
[9] = tested on: NCI/ADR-RES
[10] = tested on: MOLT-4
[11] = tested on: UO-31
[12] = tested on: U-251
[13] = tested on: RXF 393
[14] = tested on: SF-539
[15] = tested on: M14
[16] = tested on: Malme-3M
[17] = tested on: ACHN
[18] = tested on: HCT-15
[19] = tested on: MDA-MB-231
[20] = tested on: LOX IMVI

Row | SMILES | GI50 [1] | GI50 [2] | GI50 [3] | GI50 [4] | GI50 [5] | GI50 [6] | GI50 [7] | GI50 [8] | GI50 [9] | GI50 [10] | GI50 [11] | GI50 [12] | GI50 [13] | GI50 [14] | GI50 [15] | GI50 [16] | GI50 [17] | GI50 [18] | GI50 [19] | GI50 [20]
1 | CC[C@H]1C=CCC[C@@]2(C[C@@H]3CC[C@@H]4[C@H](C(=O)OCCCCCCCCCCCCCCCC(=O)N(CCCN)C[C@@H](O)CCN)[C@]5(CCC[C@@H](C)O5)NC(=[N+]34)N2)O1 | 0.318 µM (active) | 0.143 µM (active) | 0.083 µM (active) | 0.474 µM (active) | 0.229 µM (active) | 0.46 µM (active) | 0.0407 µM (active) | 0.175 µM (active) | 0.733 µM (active) | 0.0869 µM (active) | 0.337 µM (active) | 0.381 µM (active) | 0.439 µM (active) | 0.556 µM (active) | 0.0249 µM (active) | 0.245 µM (active) | 0.349 µM (active) | 0.41 µM | 0.748 µM (active) | 0.248 µM (active)
2 | c1ccc(CNc2c3c(nc4ccccc24)CCC3)cc1 | 0.0303 µM (active) | 13.4 µM (inactive) | 15.5 µM (inactive) | 15 µM (inactive) | 13.8 µM (inactive) | 13.8 µM (inactive) | 11.7 µM (inactive) | 13.5 µM (inactive) | 14.2 µM (inactive) | 13.1 µM (inactive) | 11.4 µM (inactive) | 14.9 µM (inactive) | 14 µM (inactive) | 14.5 µM (inactive) | 13.7 µM (inactive) | 17.3 µM (inactive) | 17.5 µM (inactive) | 18.9 µM | 12.9 µM (inactive) | 14 µM (inactive)
3 | O=[N+]([O-])c1ccc2c(c1)nc1n2C(c2c(F)cccc2F)SC1 (stereo not drawn) | > 100 µM (inactive) | > 91.6 µM (inactive) | > 100 µM (inactive) | > 100 µM (inactive) | > 100 µM (inactive) | > 100 µM (inactive) | > 100 µM (inactive) | > 100 µM (inactive) | > 100 µM (inactive) | > 100 µM (inactive) | – | > 74.1 µM (inactive) | > 100 µM (inactive) | > 100 µM (inactive) | > 100 µM (inactive) | > 100 µM (inactive) | > 100 µM (inactive) | > 100 µM | > 100 µM (inactive) | > 100 µM (inactive)
4 | O=C(O)CCSc1nnc(COc2ccc(Cl)cc2)n1-c1ccccc1 | > 100 µM (inactive) | > 100 µM (inactive) | > 100 µM (inactive) | > 100 µM (inactive) | > 100 µM (inactive) | > 100 µM (inactive) | – | > 100 µM (inactive) | > 100 µM (inactive) | > 100 µM (inactive) | > 100 µM (inactive) | > 100 µM (inactive) | > 100 µM (inactive) | > 100 µM (inactive) | > 100 µM (inactive) | > 100 µM (inactive) | > 100 µM (inactive) | > 100 µM | > 100 µM (inactive) | > 100 µM (inactive)
5 | Cc1nc(SCC(=O)Nc2ccccc2)c2sc(=S)n(-c3ccccc3)c2n1 | > 10 µM (inactive) | 8.79 µM (inactive) | > 10 µM (inactive) | 5.62 µM (inactive) | > 10 µM (inactive) | > 10 µM (inactive) | > 10 µM (inactive) | > 10 µM (inactive) | > 10 µM (inactive) | > 10 µM (inactive) | – | 8.87 µM (inactive) | > 10 µM (inactive) | 4.44 µM (inactive) | > 10 µM (inactive) | > 10 µM (inactive) | > 10 µM (inactive) | > 10 µM | 6.18 µM (inactive) | > 10 µM (inactive)
6 | CC(C)C(=O)CC(Sc1ccc(N)cc1)c1ccccc1 (stereo not drawn) | 16.2 µM (inactive) | 28.8 µM (inactive) | 29.4 µM (inactive) | – | 23.3 µM (inactive) | 18.2 µM (inactive) | 20.4 µM (inactive) | 24.7 µM (inactive) | 33.7 µM (inactive) | 25.1 µM (inactive) | 29.2 µM (inactive) | 16.6 µM (inactive) | 25.9 µM (inactive) | 30.5 µM (inactive) | 30.4 µM (inactive) | 35.1 µM (inactive) | 20 µM (inactive) | 27.4 µM | 22.3 µM (inactive) | 16.6 µM (inactive)
7 | Cc1ccc(S(=O)(=O)Nn2c(O)c(C#N)c(-c3ccc(N(C)C)cc3)c(C#N)c2=O)cc1 | 28.9 µM (inactive) | > 50 µM (inactive) | 21.8 µM (inactive) | > 50 µM (inactive) | > 50 µM (inactive) | > 50 µM (inactive) | 26.2 µM (inactive) | > 50 µM (inactive) | > 50 µM (inactive) | > 50 µM (inactive) | – | > 50 µM (inactive) | > 50 µM (inactive) | > 50 µM (inactive) | – | > 50 µM (inactive) | > 50 µM (inactive) | > 50 µM | > 50 µM (inactive) | > 50 µM (inactive)
8 | c1csc(-c2cc(-c3ccsc3)cs2)c1 | 74.1 µM (inactive) | 44.2 µM (inactive) | 63.1 µM (inactive) | 40.6 µM (inactive) | 98.6 µM (inactive) | 34.8 µM (inactive) | > 100 µM (inactive) | > 100 µM (inactive) | > 100 µM (inactive) | 87.1 µM (inactive) | 78.2 µM (inactive) | > 100 µM (inactive) | 20.6 µM (inactive) | 35.4 µM (inactive) | > 100 µM (inactive) | – | > 100 µM (inactive) | > 100 µM | > 100 µM (inactive) | > 100 µM (inactive)
9 | CCCNC1=Nc2ccccc2[C@@H]2N(C)c3ccccc3C(C)C[C@]12C (stereo partly drawn) | 33.3 µM (inactive) | 18.5 µM (inactive) | 15.1 µM (inactive) | 5.7 µM (inactive) | 13.2 µM (inactive) | 21.3 µM (inactive) | 15.6 µM (inactive) | 11.1 µM (inactive) | 22.4 µM (inactive) | 18.1 µM (inactive) | 27.9 µM (inactive) | – | 19.7 µM (inactive) | 16.4 µM (inactive) | 17.7 µM (inactive) | 16.6 µM (inactive) | 23.8 µM (inactive) | 23.6 µM | 15.8 µM (inactive) | 13.3 µM (inactive)
10 | CC1CC(C#N)=C2NCCCCN2C1=O (stereo not drawn) | > 100 µM (inactive) | > 100 µM (inactive) | – | > 100 µM (inactive) | > 100 µM (inactive) | > 100 µM (inactive) | > 100 µM (inactive) | > 100 µM (inactive) | > 100 µM (inactive) | > 100 µM (inactive) | > 100 µM (inactive) | > 100 µM (inactive) | > 100 µM (inactive) | > 100 µM (inactive) | > 100 µM (inactive) | > 100 µM (inactive) | – | > 100 µM | > 100 µM (inactive) | > 100 µM (inactive)
11 | Cc1ccc(NC(=O)/C(Cc2cc(=O)oc3cc(O)ccc23)=N\NC(C)(C)C)cc1C | > 100 µM (inactive) | > 100 µM (inactive) | – | 68.9 µM (inactive) | > 100 µM (inactive) | > 100 µM (inactive) | > 100 µM (inactive) | 29.4 µM (inactive) | > 100 µM (inactive) | > 100 µM (inactive) | > 100 µM (inactive) | > 100 µM (inactive) | > 100 µM (inactive) | > 100 µM (inactive) | > 100 µM (inactive) | – | > 100 µM (inactive) | > 100 µM | > 100 µM (inactive) | > 100 µM (inactive)
